According to patent US9771369B2, “Compounds and methods for kinase modulation, and indications therefor” (Plexxikon Inc., priority 2014, dated 2017):

Target: c-kit mutant D816V (Homo sapiens (Human), UniProt P10721, D816V/DEL694-753)
Assay: c-Kit mutant D816V biochemical assay (AlphaScreen kinase activity)
Summary of the method: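 AlphaScreen with streptavidin donor and PY30 acceptor beads read phosphotyrosine on biotin-(E4Y)10 substrate (30 nM). Enzyme: E. coli-expressed N-His c-Kit D816V, residues 551-934 lacking kinase insert 694-753. Reaction 30 min at room temperature, 10 μM ATP, 5% DMSO; IC50 fitted over 8 three-fold dilutions.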

c-kit mutant D816V, sequence (P10721 other isoform, or with tags, fused parts or gaps D816V/del 694-753): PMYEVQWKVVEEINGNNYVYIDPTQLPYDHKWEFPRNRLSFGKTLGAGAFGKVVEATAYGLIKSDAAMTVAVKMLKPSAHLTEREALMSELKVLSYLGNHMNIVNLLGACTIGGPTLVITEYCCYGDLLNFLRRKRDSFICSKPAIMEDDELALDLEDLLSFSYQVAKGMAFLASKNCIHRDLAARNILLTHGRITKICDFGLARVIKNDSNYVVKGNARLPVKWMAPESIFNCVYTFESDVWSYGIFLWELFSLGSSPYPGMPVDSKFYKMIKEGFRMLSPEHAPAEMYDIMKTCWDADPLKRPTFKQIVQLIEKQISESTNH

SMILES	IC50 [µM]
CCOc1ccc(-c2[nH]c(C3(C)CCN(c4ncnc5[nH]c(-c6ccc(N7CCOCC7)nc6)cc45)CC3)nc2C)cc1 [P-3227, 4-[5-[4-[4-[5-(4-ethoxyphenyl)-4-methyl-1H-imidazol-2-yl]-4-methyl-1-piperidyl]-7H-pyrrolo[2,3-d]pyrimidin-6-yl]-2-pyridyl]morpholine]	0.0001 to 1
COc1ccc(-c2[nH]c(C3(C)CCN(c4ncnc5[nH]c(-c6ccc(NS(C)(=O)=O)cc6)cc45)CC3)nc2C)cc1C [P-3228, N-[4-[4-[4-[5-(4-methoxy-3-methyl-phenyl)-4-methyl-1H-imidazol-2-yl]-4-methyl-1-piperidyl]-7H-pyrrolo[2,3-d]pyrimidin-6-yl]phenyl]methanesulfonamide]	0.0001 to 1
CCOc1ccc(-c2[nH]c(C3(C)CCN(c4ncnc5[nH]c(-c6ccc(C(N)=O)cc6)cc45)CC3)nc2C)cc1 [P-3229, 4-[4-[4-[5-(4-ethoxyphenyl)-4-methyl-1H-imidazol-2-yl]-4-methyl-1-piperidyl]-7H-pyrrolo[2,3-d]pyrimidin-6-yl]benzamide]	0.0001 to 1
CCOc1ccc(-c2[nH]c(C3(C)CCN(c4ncnc5[nH]c(-c6ccc(NS(C)(=O)=O)cc6)cc45)CC3)nc2C)cc1 [P-3230, N-[4-[4-[4-[5-(4-ethoxyphenyl)-4-methyl-1H-imidazol-2-yl]-4-methyl-1-piperidyl]-7H-pyrrolo[2,3-d]pyrimidin-6-yl]phenyl]methanesulfonamide]	0.0001 to 1
Cc1nc(C2(C)CCN(c3ncnc4[nH]c(-c5ccc(C(N)=O)cc5)cc34)CC2)[nH]c1-c1cccc(OC(F)F)c1 [P-3231, 4-[4-[4-[5-[3-(difluoromethoxy)phenyl]-4-methyl-1H-imidazol-2-yl]-4-methyl-1-piperidyl]-7H-pyrrolo[2,3-d]pyrimidin-6-yl]benzamide]	0.0001 to 1
Cc1nc(C2(C)CCN(c3ncnc4[nH]c(-c5ccc(NS(C)(=O)=O)cc5)cc34)CC2)[nH]c1-c1cccc(OC(F)F)c1 [P-3232, N-[4-[4-[4-[5-[3-(difluoromethoxy)phenyl]-4-methyl-1H-imidazol-2-yl]-4-methyl-1-piperidyl]-7H-pyrrolo[2,3-d]pyrimidin-6-yl]phenyl]methanesulfonamide]	0.0001 to 1
Cc1nc(C2(C)CCN(c3ncnc4[nH]c(-c5ccc(OCC(=O)O)cc5)cc34)CC2)[nH]c1-c1cccc(OC(F)F)c1 [P-3233, 2-[4-[4-[4-[5-[3-(difluoromethoxy)phenyl]-4-methyl-1H-imidazol-2-yl]-4-methyl-1-piperidyl]-7H-pyrrolo[2,3-d]pyrimidin-6-yl]phenoxy]acetic acid]	0.0001 to 1
COc1cccc(-c2[nH]c(C3(C)CCN(c4ncnc5[nH]c(-c6ccc(NS(C)(=O)=O)cc6)cc45)CC3)nc2C)c1 [P-3234, N-[4-[4-[4-[5-(3-methoxyphenyl)-4-methyl-1H-imidazol-2-yl]-4-methyl-1-piperidyl]-7H-pyrrolo[2,3-d]pyrimidin-6-yl]phenyl]methanesulfonamide]	0.0001 to 1
CNC(=O)c1ccc(-c2cc3c(N4CCC(C)(c5nc(C)c(-c6ccc(C(F)F)cc6)[nH]5)CC4)ncnc3[nH]2)cn1 [P-3235, 5-[4-[4-[5-[4-(difluoromethyl)phenyl]-4-methyl-1H-imidazol-2-yl]-4-methyl-1-piperidyl]-7H-pyrrolo[2,3-d]pyrimidin-6-yl]-N-methyl-pyridine-2-carboxamide]	0.0001 to 1
CNC(=O)c1ccc(-c2cc3c(N4CCC(C)(c5nc(C)c(-c6cccc(OC(F)F)c6)[nH]5)CC4)ncnc3[nH]2)cn1 [P-3236, 5-[4-[4-[5-[3-(difluoromethoxy)phenyl]-4-methyl-1H-imidazol-2-yl]-4-methyl-1-piperidyl]-7H-pyrrolo[2,3-d]pyrimidin-6-yl]-N-methyl-pyridine-2-carb oxamide]	0.0001 to 1
Cc1nc(C2(C)CCN(c3ncnc4[nH]c(-c5ccc(N6CCOCC6)nc5)cc34)CC2)[nH]c1-c1ccc(C(F)F)cc1 [P-3237, 4-[5-[4-[4-[5-[4-(difluoromethyl)phenyl]-4-methyl-1H-imidazol-2-yl]-4-methyl-1-piperidyl]-7H-pyrrolo[2,3-d]pyrimidin-6-yl]-2-pyridyl]morpholine]	0.0001 to 1
Cc1nc(C2(C)CCN(c3ncnc4[nH]c(-c5ccc(N6CCOCC6)nc5)cc34)CC2)[nH]c1-c1cccc(OC(F)F)c1 [P-3238, 4-[5-[4-[4-[5-[3-(difluoromethoxy)phenyl]-4-methyl-1H-imidazol-2-yl]-4-methyl-1-piperidyl]-7H-pyrrolo[2,3-d]pyrimidin-6-yl]-2-pyridyl]morpholine]	0.0001 to 1
Cc1nc(C2(C)CCN(c3ncnc4[nH]c(-c5ccc(C(N)=O)cc5)cc34)CC2)[nH]c1-c1ccc(C(F)F)cc1 [P-3239, 4-[4-[4-[5-[4-(difluoromethyl)phenyl]-4-methyl-1H-imidazol-2-yl]-4-methyl-1-piperidyl]-7H-pyrrolo[2,3-d]pyrimidin-6-yl]benzamide]	0.0001 to 1
Cc1nc(C2(C)CCN(c3ncnc4[nH]c(-c5ccc(OCC(=O)O)cc5)cc34)CC2)[nH]c1-c1ccc(C(F)F)cc1 [P-3240, 2-[4-[4-[4-[5-[4-(difluoromethyl)phenyl]-4-methyl-1H-imidazol-2-yl]-4-methyl-1-piperidyl]-7H-pyrrolo[2,3-d]pyrimidin-6-yl]phenoxy]acetic acid]	0.0001 to 1
Cc1nc(C2(C)CCN(c3ncnc4[nH]c(-c5ccc(OCC(=O)O)cc5)cc34)CC2)[nH]c1-c1ccc(OC(F)F)cc1 [P-3241, 2-[4-[4-[4-[5-[4-(difluoromethoxy)phenyl]-4-methyl-1H-imidazol-2-yl]-4-methyl-1-piperidyl]-7H-pyrrolo[2,3-d]pyrimidin-6-yl]phenoxy]acetic acid]	0.0001 to 1
Cc1nc(C2(C)CCN(c3ncnc4[nH]c(-c5cnn(C(F)F)c5)cc34)CC2)[nH]c1-c1ccc(OC(F)F)cc1 [P-3242, 4-[4-[5-[4-(difluoromethoxy)phenyl]-4-methyl-1H-imidazol-2-yl]-4-methyl-1-piperidyl]-6-[1-(difluoromethyl)pyrazol-4-yl]-7H-pyrrolo[2,3-d]pyrimidine]	0.0001 to 1
CCOc1ccc(-c2[nH]c(C3(C)CCN(c4ncnc5[nH]c(-c6ccc(C(N)=O)cc6)cc45)CC3)nc2C)cc1C [P-3243, 4-[4-[4-[5-(4-ethoxy-3-methyl-phenyl)-4-methyl-1H-imidazol-2-yl]-4-methyl-1-piperidyl]-7H-pyrrolo[2,3-d]pyrimidin-6-yl]benzamide]	0.0001 to 1
CCOc1ccc(-c2[nH]c(C3(C)CCN(c4ncnc5[nH]c(-c6ccc(OCC(=O)O)cc6)cc45)CC3)nc2C)cc1C [P-3244, 2-[4-[4-[4-[5-(4-ethoxy-3-methyl-phenyl)-4-methyl-1H-imidazol-2-yl]-4-methyl-1-piperidyl]-7H-pyrrolo[2,3-d]pyrimidin-6-yl]phenoxy]acetic acid]	0.0001 to 1
CCOc1ccc(-c2[nH]c(C3(C)CCN(c4ncnc5[nH]c(-c6cnn(C(F)F)c6)cc45)CC3)nc2C)cc1C [P-3245, 6-[1-(difluoromethyl)pyrazol-4-yl]-4-[4-[5-(4-ethoxy-3-methyl-phenyl)-4-methyl-1H-imidazol-2-yl]-4-methyl-1-piperidyl]-7H-pyrrolo[2,3-d]pyrimidine]	0.0001 to 1
CNC(=O)c1ccc(-c2cc3c(N4CCC(C)(c5nc(C)c(-c6ccc(OC(F)F)cc6)[nH]5)CC4)ncnc3[nH]2)cn1 [P-3246, 5-[4-[4-[5-[4-(difluoromethoxy)phenyl]-4-methyl-1H-imidazol-2-yl]-4-methyl-1-piperidyl]-7H-pyrrolo[2,3-d]pyrimidin-6-yl]-N-methyl-pyridine-2-carb oxamide]	0.0001 to 1
CCOc1ccc(-c2[nH]c(C3(C)CCN(c4ncnc5[nH]c(-c6ccc(C(=O)NC)nc6)cc45)CC3)nc2C)cc1C [P-3247, 5-[4-[4-[5-(4-ethoxy-3-methyl-phenyl)-4-methyl-1H-imidazol-2-yl]-4-methyl-1-piperidyl]-7H-pyrrolo[2,3-d]pyrimidin-6-yl]-N-methyl-pyridine-2-carb oxamide]	0.0001 to 1
Cc1nc(C2(C)CCN(c3ncnc4[nH]c(-c5ccc(N6CCOCC6)nc5)cc34)CC2)[nH]c1-c1ccc(OC(F)F)cc1 [P-3248, 4-[5-[4-[4-[5-[4-(difluoromethoxy)phenyl]-4-methyl-1H-imidazol-2-yl]-4-methyl-1-piperidyl]-7H-pyrrolo[2,3-d]pyrimidin-6-yl]-2-pyridyl]morpholine]	0.0001 to 1
CCOc1ccc(-c2[nH]c(C3(C)CCN(c4ncnc5[nH]c(-c6ccc(N7CCOCC7)nc6)cc45)CC3)nc2C)cc1C [P-3249, 4-[5-[4-[4-[5-(4-ethoxy-3-methyl-phenyl)-4-methyl-1H-imidazol-2-yl]-4-methyl-1-piperidyl]-7H-pyrrolo[2,3-d]pyrimidin-6-yl]-2-pyridyl]morpholine]	0.0001 to 1
